The values below come from patent US9139546B2, “Tri-aryl/heteroaromatic cannabinoids and use thereof” (priority 2007, dated 2015).

Experiment [1] concerns the target human CB2 receptor (Homo sapiens (Human), UniProt P34972). Kind of experiment: Receptor binding assay, CB2 ([3H]CP 55,940 displacement). As to conditions: for CB1/CB2: ratio of Ki CB-1 to Ki CB-2; for Ki: as repeated in the anti-inflammatory table, read-out: CB-2 Ki. As for the experimental part: (§1) The assays were carried out in 96 well plates obtained from Millipore, Inc. fitted with glass fiber filters (hydrophilic, GFC filters) having a pore size of 1.2μ. The filters were soaked with 0.05% polyethyleneimine solution and washed 5× with deionized water prior to carrying out the assays. The filtrations were carried out on a 96 well vacuum manifold (Millipore Inc.), the filters punched out with a pipette tip directly into scintillation vials at the end of the experiment and vials filled with 5 ml scintillation cocktail Ecolite (+) (Fisher Scientific). Counting was carried out on a Beckmann Scintillation Counter model LS6500. Drug solutions were prepared in DMSO and the radioligand was dissolved in ethanol.
(§2) 50 mM TRIS-HCl, 5 mM MgCl2, 2.5 mM EDTA, 0.5 mg/ml fatty acid free bovine serum albumin, pH 7.4.
(§3) The membranes were filtered and the filters washed 7× with 0.2 ml ice-cold incubation buffer and allowed to air dry under vacuum.
(§4) Final data are presented as Ki±S.E.M. of n≧3 experiments.

Experiment [2] concerns the target human CB1 receptor (Homo sapiens (Human), UniProt P21554). As to the kind of experiment: Receptor binding assay, CB1 ([3H]CP 55,940 displacement). As to conditions: as repeated in the anti-inflammatory table; read-out: CB-1 Ki. How it is done:
as §1, §2, §3, §4

The test system of experiment [3] is NF-κB. Kind of experiment: NF-κB SEAP reporter assay in TNF-α treated A549 cells. As to conditions: Homo sapiens, read-out: NF-κB Reduction; for inhibition at 0.01 µM: 10 nM compound. The class given is cell-based. As for the experimental part:
(§5) Human lung adenocarcinoma cell line A549 (alveolar type II epithelial-like) cells (ATCC, Manassas, Va.) were maintained in growth media consisting of DMEM supplemented with 10% heat-inactivated fetal calf serum, 2 mM L-glutamine, 100 U/ml penicillin, and 100 μg/ml streptomycin.
The plasmid pNF-κB-SEAP-NPT was kindly provided by Dr. Y. S. Kim of the Seoul National University. This plasmid contains a secreted alkaline phosphatase (SEAP) reporter gene coupled with the κB response element. Upon activation, NF-κB translocates to the nucleus and binds to the κB response element causing transcriptional activation. This activation drives production of the SEAP reporter, which is secreted into the cell culture supernatant where it can be measured. The neomycin phosphotransferase (NPT) region of the plasmid provides resistance to the antibiotic G-418.
A549 cells were stably transfected with pNF-κB-SEAP-NPT using GeneJammer Transfection Reagent (Stratagene, La Jolla, Calif.) per manufacturer's protocol. G-418 (500 μg/ml) was added 24 hrs after transfection to select for stable transfection of NF-κB. Resistant colonies were selected and maintained in growth media supplemented with 500 μg/ml G-418.
Previous experiments have shown A549 cells respond to the pro-inflammatory cytokine TNF-α by activation of the pro-inflammatory transcription factor, NF-κB. This effect is dose dependent with the maximum effect seen at 10 ng/mL TNF-α. Compounds with anti-inflammatory activity can be used to inhibit this activation of NF-κB.
One day prior to treatment, transfected cells were seeded in 24 well culture plates at 6×10^4 cells/well in 1 mL of DMEM containing 1% FCS. On the day of treatment, media was aspirated. Following PBS wash, 1 mL of media containing 1% FCS, 10 ng/mL TNF-α, and varying concentrations of test compounds was added. Cell culture supernatant was collected at 18 hours. SEAP production was measured in 50 μL of supernatant using the Great EscAPe™ chemiluminescence kit (Clontech, Mountain View, Calif.). Briefly, samples were incubated at 65° C. for 30 minutes to inactivate endogenous alkaline phosphate. Following a 5-minute equilibration with assay buffer, chemiluminescent substrate and enhancer was added. Chemiluminescence was measured after 10 minutes. Higher levels of chemiluminescence result from increased SEAP production and correspond to NF-κB activity. Compounds capable of inhibiting NF-κB activation due to TNF-α are determined by a reduction in chemiluminescence values when cells are treated with TNF-α and test compound versus cells treated with TNF-α alone.

The test system of experiment [4] is IL-6. As to the kind of experiment: IL-6 level in supernatant of TNF-α treated A549 cells (multiplex bead immunoassay). In kind it is cell-based, human. As to conditions: A549, 10 ng/mL TNF-α, 18 hours. How it is done: as §5
(§6) One day prior to treatment, A549 cells were seeded in 24 well culture plates at 6×10^4 cells/well in 1 mL of DMEM containing 1% FCS. On the day of treatment, media was aspirated. Following PBS wash, 1 mL of media containing 1% FCS, 10 ng/mL TNF-α, and varying concentrations of test compounds was added. Samples were collected at 18 hours and immediately transferred to −80° C. until the day of analysis.
(§7) Levels of IL-6 and CXCL-8 were measured in cell culture supernatant using the Multiplex Bead Immunoassay Kit (Biosource, Camarillo, Calif.) paired with the Luminex® 200™ System. Standard solutions were prepared by serial dilution in a 50% media, 50% buffer solution so that they were in the same matrix as the samples. Standards and samples were mixed with a solution containing beads coated with capture antibodies specific for IL-6 and CXCL-8. Each capture antibody is bound to a specific bead population with a known internal fluorescence. The Luminex system can differentiate between internal fluorescence of beads allowing detection of multiple analytes in the same well. Following overnight incubation to allow complexation of protein with capture antibodies, wells were washed and beads resuspended in assay buffer. Biotinylated reporter antibodies specific for IL-6 and CXCL-8 were added and incubated for 1.5 hours. Unbound antibodies were removed by washing, and Streptavidin-Phycoerythrin (PE) was added and incubated 30 minutes. Streptavidin binds to biotin on the reporter antibodies. Unbound reagents were removed and samples were analyzed by the Luminex system. This system utilizes a flow cytometry system and lasers capable of exciting the internal dyes of the beads and PE. The machine separates signals from beads with different internal fluorescence and measures fluorescence intensity from PE bound to these beads through protein-antibody interactions. This fluorescence intensity is reported as the median of 100 beads per cytokine in each well. Concentrations were interpolated by fitting fluorescence intensity from unknowns to the standard curves.
(§8) Cells treated with the pro-inflammatory cytokine TNF-α increase production of IL-6 and CXCL-8 when compared to cells not treated with TNF-α. Cells treated with anti-inflammatory compounds block the inflammatory effect of TNF-α and produce IL-6 and CXCL-8 levels similar to cells that are not treated with TNF-α.

The test system of experiment [5] is CXCL-8. Kind of experiment: CXCL-8 level in supernatant of TNF-α treated A549 cells (multiplex bead immunoassay). The class given is cell-based, human. As to conditions: 4 μM compound; A549, 10 ng/mL TNF-α, 18 hours. How it is done: as §5, §6, §7, §8
For experiment [6], the system named is DU-145 prostate cancer cells. Kind of experiment: Anti-cancer activity, WST-8 cell viability, DU-145. In kind it is cell-based. As to conditions: Homo sapiens. As for the experimental part: (§9) A representative group of compounds (shown below) was tested for anti-cancer activity against human lung (DMS-135 and H69AR), prostate (DU-145), colorectal (HCT-15), and pancreatic (BxPC-3) cancer cell lines using the methodology described below, providing results shown in Table 3.
(§10) Human cancer cells DU-145, DMS-135, H69AR, HCT-15, and BxPC-3 (American Type Culture Collection, ATCC) were cultured in supplemented media according to the recommendations of the supplier. Cells lines were plated in 96-well flat-bottom plates at 70% confluency in a 100 μl total volume of supplemented media as indicated, and incubated overnight at 37° C. to allow for adherence. The cultures were inoculated with escalating amounts of drug and cell death was analyzed at 18 hours, using the BioTek Synergy 2 Multidetection Microplate Reader. The percentage of viable cells present in the culture at each time point was calculated by comparing the absorbance value at 450 nm from the WST-8 assay (Pojindo Molecular Technologies) for each condition with untreated control cells.
(Tetrazolium dyes change colour on reduction, which living cells bring about.)

For experiment [7], the system named is DMS-135 lung cancer cells. Kind of experiment: Anti-cancer activity, WST-8 cell viability, DMS-135. In kind it is cell-based. As to conditions: Homo sapiens. As for the experimental part:
as §9, §10

Experiment [8] concerns HCT-15 colorectal cancer cells. Kind of experiment: Anti-cancer activity, WST-8 cell viability, HCT-15. The class given is cell-based. As to conditions: Homo sapiens. How it is done: as §9, §10
Experiment [9] deals with BxPC-3 pancreatic cancer cells. Kind of experiment: Anti-cancer activity, WST-8 cell viability, BxPC-3. The class given is cell-based. As to conditions: Homo sapiens, BXPC-3; cell death at 18 hours, WST-8; n.a. = no activity; read-out: BxPC-3 pancreatic EC50. As for the experimental part:
as §9, §10

Experiment [10] has as its system H69AR lung cancer cells. As to the kind of experiment: Anti-cancer activity, WST-8 cell viability, H69AR. The class given is cell-based. As to conditions: Homo sapiens, 18 h, read-out: H69AR lung EC50 (μM). How it is done: as §9, §10
The mark [11] stands for this setting: DU-145, 18 h, read-out: DU-145 prostate EC50 (μM).
Where [12] appears, read: 18 h, read-out: DMS-135 lung EC50 (μM).

Where two headings read alike, the source gives them in different places. A value given as a limit tells only on which side of the number the result lay.

Chain of human CB1 receptor (P21554 whole entry): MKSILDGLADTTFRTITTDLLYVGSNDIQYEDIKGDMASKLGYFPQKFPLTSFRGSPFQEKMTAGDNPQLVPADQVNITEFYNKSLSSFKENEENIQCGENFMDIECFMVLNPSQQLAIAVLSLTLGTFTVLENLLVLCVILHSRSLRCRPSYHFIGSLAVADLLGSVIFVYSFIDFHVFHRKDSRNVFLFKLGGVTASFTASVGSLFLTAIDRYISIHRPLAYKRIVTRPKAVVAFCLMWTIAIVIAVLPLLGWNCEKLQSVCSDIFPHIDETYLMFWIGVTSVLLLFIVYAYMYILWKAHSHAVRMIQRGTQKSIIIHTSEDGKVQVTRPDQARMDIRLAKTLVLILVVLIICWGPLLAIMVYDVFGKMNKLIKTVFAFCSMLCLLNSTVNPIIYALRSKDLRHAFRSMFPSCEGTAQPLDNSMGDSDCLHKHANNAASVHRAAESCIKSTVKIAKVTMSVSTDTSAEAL

As to `Cc1cccc(-c2ccc(C(C)(C)c3ccccc3)cc2O)c1` [Compound 39, 3′-methyl-4-(2-phenylpropan-2-yl)biphenyl-2-ol], the CB1/CB2 in experiment [1] came out at 8.87.

With `COc1cc(C(O)c2cccs2)cc(OC)c1-c1cc(Cl)cc(Cl)c1` (stereo not shown) [Compound 16, (3′,5′-dichloro-2,6-dimethoxybiphenyl-4-yl)(thiophen-2-yl)methanol], the Ki in experiment [2] is more than 1000 nM. Moreover, in [1], the Ki turned out to be 0.27 nM and the CB1/CB2 is 3700. Besides, the inhibition at 4 µM in [3] (4 μM compound, A549, 10 ng/mL TNF-α, 18 hours) was 45%. The “IL-6 Reduction” value in experiment [4] (4 μM compound) is listed as 90%. Also, in experiment [5], the “CXCL-8 Reduction” value was 80%.

On to `Cc1cccc(-c2c(O)cc(C(C)(C)c3ccccc3)cc2O)c1` [Compound 40, 3′-Methyl-4-(1-methyl-1-phenyl-ethyl)-biphenyl-2,6-diol], for which the CB1/CB2 in experiment [1] was found to be 20.30.

Consider `Cc1cccc(-c2c(O)cc(C(C)(C)c3cccs3)cc2O)c1` [Compound 43, 3′-methyl-4-(2-(thiophen-2-yl)propan-2-yl)biphenyl-2,6-diol], for which the CB1/CB2 in experiment [1] is 0.05.

On to `COc1cc(C(O)c2ccccc2)cc(OC)c1-c1cc(Cl)cc(Cl)c1` (stereo not shown) [Compound 15], for which the Ki in experiment [2] was more than 1000 nM; in [1] it was 1.66 nM. Moreover, the CB1/CB2 in experiment [1] is 602. In addition, the inhibition at 0.1 µM in experiment [3] (100 nM compound, A549, 10 ng/mL TNF-α, 18 hours) was found to be 30%. Further, the “IL-6 Reduction” value in experiment [4] (100 nM compound) is 55%. Besides, the EC50 in experiment [6] (DU-145, cell death at 18 hours, WST-8, n.a. = no activity, read-out: DU-145 prostate EC50) was found to be 18.4 µM; in experiment [7] (cell death at 18 hours, WST-8, n.a. = no activity, read-out: DMS-135 lung EC50), 6.2 µM; in experiment [8] (HCT-15, cell death at 18 hours, WST-8, n.a. = no activity, read-out: HCT-15 colorectal EC50) it was 348 µM; in [9], 11600 nM.

`Cc1cccc(-c2ccc(C(=O)c3ccccc3)cc2O)c1` [Compound 25, (2-hydroxy-3′-methylbiphenyl-4-yl)(phenyl)methanone]: in [2], the Ki is more than 1000 nM. In [1], the Ki was 454 nM and the CB1/CB2 worked out at 2.21. Moreover, the inhibition at 0.01 µM in experiment [3] (A549, 10 ng/mL TNF-α, 18 hours) worked out at 15%.

With `CC(C)(c1ccc(-c2cc(Cl)cc(Cl)c2)c(O)c1)c1cccs1` [Compound 45, 3′,5′-dichloro-4-(2-(thiophen-2-yl)propan-2-yl)biphenyl-2-ol], the CB1/CB2 in [1] came out at 0.46.

`CC(C)(c1ccccc1)c1cc(O)c(-c2cc(Cl)cc(Cl)c2)c(O)c1` [Compound 41, 3′,5′-dichloro-4-(2-phenylpropan-2-yl)biphenyl-2,6-diol]: the CB1/CB2 in [1] was 87.5. Also, the half-maximal effective concentration (EC50) in experiment [6] (setting [11]) amounted to 1.4 µM; in experiment [7] (setting [12]), 1.5 µM; in experiment [10] it was 1.8 µM.

Turning to `COc1cc(C(C)(C)c2ccccc2)cc(O)c1-c1cc(Cl)cc(Cl)c1` [Compound 47], the EC50 stood at 1.4 µM in [6] (setting [11]); 0.9 µM in experiment [7] (setting [12]); 12.2 µM in experiment [10]; 4.2 µM in experiment [8] (HCT-15, 18 h, read-out: HCT-15 colorectal EC50 (μM)).

Regarding `CC(C)(c1cc(O)c(-c2cc(Cl)cc(Cl)c2)c(O)c1)c1cccs1` [Compound 44, 3′,5′-dichloro-4-(2-(thiophen-2-yl)propan-2-yl)biphenyl-2,6-diol], the CB1/CB2 in [1] is 0.41.

As for `COc1cc(C(=O)c2cccs2)cc(O)c1-c1cc(Cl)cc(Cl)c1` [Compound 30, (3′,5′-dichloro-2-hydroxy-6-methoxybiphenyl-4-yl)(thiophen-2-yl)methanone], the figures for the Ki in [2] and in [1] were 503 nM and 2.32 nM, respectively. Besides, the CB1/CB2 in experiment [1] is 217. Also, the inhibition at 1 µM in [3] (A549, 18 h) amounted to 40%. Besides, in experiment [4] (1 μM compound), the “IL-6 Reduction” value amounted to 45%.

For the compound `O=C(c1cc(O)c(-c2cc(Cl)cc(Cl)c2)c(O)c1)c1cccs1` [Compound 31, (3′,5′-dichloro-2,6-dihydroxybiphenyl-4-yl)(thiophen-2-yl)methanone], the Ki in experiment [2] was more than 1000 nM. Moreover, in experiment [1], the Ki is 1.75 nM and the CB1/CB2 amounted to 571. Further, the inhibition at 0.01 µM in [3] (A549, 10 ng/mL TNF-α, 18 hours) amounted to 55%. In addition, the “IL-6 Reduction” value in [4] (10 nM compound) is 35%.

Turning to `CC(C)(c1ccccc1)c1ccc(-c2cc(Cl)cc(Cl)c2)c(O)c1` [Compound 42, 3′,5′-dichloro-4-(2-phenylpropan-2-yl)biphenyl-2-ol], the CB1/CB2 in [1] came out at 142.1.

For orientation: Ki means the dissociation constant of the complex between target and ligand, obtained from inhibition or displacement. The EC50 is the concentration that produces a half-maximal response.
